The values that follow come from patent publication US20070099983A1, “Aminocyclohexyl ether compounds and uses thereof” (Cardiome Pharma Corp., priority 2003, published 2007).

The structures appear in SMILES notation. Structures can show the parent of a compound that is named as a salt.

The test system of this data set is conscious rats. As to the kind of experiment: Determination of CNS toxicity: convulsions in conscious rats on increasing i.v. infusion. Type of data set: in vivo.
Setting [1] is: minimum i.v. infusion rate at which partial or complete convulsions are observed, conscious rats, maximum rate 64.
The mark [2] stands for this setting: total amount of drug infused when partial or complete convulsions are first observed, conscious rats.

On to `Cl.FC(F)(F)c1ccccc1CCO[C@H]1CCCC[C@H]1N1CCOCC1` (racemic) [Compound 42, (1R,2S)/(1S,2R)-2-(4-morpholinyl)-1-[(2-trifluoromethyl)-phenethoxy]-cyclohexane monohydrochloride], for which the cum conv dose (rat, in vivo) was found to be 102 µmol/kg. The convulsion dose (rat, in vivo, iv) worked out at 16 µmol/kg/min.

For `COc1ccc(CCO[C@H]2CCCC[C@@H]2N2CC[C@@H](O)C2)cc1OC.Cl` [Compound 2, (1S,2S)-2-[(3R)-Hydroxypyrrolidinyl]-1-(3,4-dimethoxyphenethoxy)cyclohexane monohydrochloride], the cum conv dose (rat, in vivo) is 500.67 µmol/kg. The convulsion dose (rat, in vivo, iv) turned out to be 64 µmol/kg/min.

`COc1ccc(CCO[C@H]2CCCCC2N2CCC(O)C2)cc1OC` (stereo partly drawn) [Compound 3, (1R,2R)/(1S,2S)-2-[(3R)/(3S)-Hydroxypyrrolidinyl]-1-(3,4-dimethoxyphenethoxy)-cyclohexane monohydrochloride] displayed a cum conv dose (rat, in vivo) of 502 µmol/kg. The same compound returned a convulsion dose (rat, in vivo, iv) of 64 µmol/kg/min.

Turning to `COc1ccc(CCO[C@H]2CCCCC2N2CC[C@@H](O)C2)cc1OC.Cl` (stereo partly drawn) [Compound 4, (1R,2R)/(1S,2S)-2-[(3R)-Hydroxypyrrolidinyl]-1-(3,4-dimethoxyphenethoxy)-cyclohexane monohydrochloride], the cum conv dose (rat, in vivo) stood at 502 µmol/kg. Further, where the note is “rat, in vivo, iv”, the convulsion dose was found to be 64 µmol/kg/min.

`COc1ccc(CCO[C@H]2CCCCC2N2CC[C@H](O)C2)cc1OC.Cl` (stereo partly drawn) [Compound 5, (1R,2R)/(1S,2S)-2-[(3S)-Hydroxypyrrolidinyl]-1-(3,4-dimethoxyphenethoxy)-cyclohexane monohydrochloride] had a cum conv dose (rat, in vivo) of 438 µmol/kg. In addition, the convulsion dose (rat, in vivo, iv) was 64 µmol/kg/min.

`COc1ccc(CCO[C@@H]2CCCC[C@H]2N2CC[C@H](O)C2)cc1OC.Cl` [Compound 6, (1R,2R)-2-[(3S)-Hydroxypyrrolidinyl]-1-(3,4-dimethoxyphenethoxy) cyclohexane monohydrochloride] came in with a cum conv dose (rat, in vivo) of 472.24 µmol/kg. Also, the convulsion dose (rat, in vivo, iv) came to 64 µmol/kg/min.

Compound `COc1ccc(CCO[C@H]2CCCC[C@@H]2N2CC[C@H](O)C2)cc1OC.Cl` [Compound 7, (1S,2S)-2-[(3S)-Hydroxypyrrolidinyl]-1-(3,4-dimethoxyphenethoxy)cyclohexane monohydrochloride] returned a cum conv dose (rat, in vivo) of 451.67 µmol/kg. For the setting “rat, in vivo, iv”, the convulsion dose was 64 µmol/kg/min.

As to `COc1ccc(CCOC2CCCC[C@H]2N2CCOCC2)cc1OC.Cl` (stereo partly drawn) [Compound 8, 4-{(1R,2R)/(1S,2S)-2-[2-(3,4-dimethoxy-phenyl)ethoxy]cyclohexyl}morpholine hydrochloride], for the setting “rat, in vivo”, the cum conv dose was 113 µmol/kg. The compound further came in with a convulsion dose (rat, in vivo, iv) of 16 µmol/kg/min.

In turn, `COc1ccc(CCO[C@H]2CCCCC2N2CCC3(C2)OCCO3)cc1OC.Cl` (stereo partly drawn) [Compound 9, 7-{(1R,2R)/(1S,2S)-2-[2-(3,4-dimethoxyphenyl)-ethoxy]cyclohexyl}-1,4-dioxa-7-azaspiro[4.4]nonane hydrochloride] displayed a convulsion dose under setting [1] of 16 µmol/kg/min. The same compound came in with a cum conv dose under setting [2] of 91.33 µmol/kg.

Compound `COc1ccc(CCO[C@H]2CCCCC2N2CCCC2)cc1OC.Cl` (stereo partly drawn) [Compound 10, 1-{(1R,2R)/(1S,2S)-2-[2-(3,4-dimethoxyphenyl)-ethoxy]cyclohexyl}-pyrrolidine hydrochloride] yielded a cum conv dose (rat, in vivo) of 118 µmol/kg. Besides, the convulsion dose (rat, in vivo, iv) was determined as 21.33 µmol/kg/min.

Take `COc1ccc(CCO[C@H]2CCCCC2N2CC[C@H](OCc3ccccc3)C2)cc1OC.Cl` (stereo partly drawn) [Compound 11, (3S)-3-benzyloxy-1-{(1R,2R)/(1S,2S)-2-[2-(3,4-dimethoxyphenyl)-ethoxy]cyclohexyl}-pyrrolidine hydrochloride]: under “rat, in vivo”, the cum conv dose is 38.13 µmol/kg. Where the note is “rat, in vivo, iv”, this compound registered a convulsion dose of 8 µmol/kg/min.

Compound `COc1ccc(CCO[C@H]2CCCCC2N2CC[C@@H](OCc3ccccc3)C2)cc1OC.Cl` (stereo partly drawn) [Compound 12, (3R)-3-benzyloxy-1-{(1R,2R)/(1S,2S)-2-[2-(3,4-dimethoxyphenyl)-ethoxy]cyclohexyl}-pyrrolidine hydrochloride] yielded a cum conv dose (rat, in vivo) of 51.1 µmol/kg. Where the note is “rat, in vivo, iv”, this compound displayed a convulsion dose of 8 µmol/kg/min.

For the setting “rat, in vivo”, `COc1ccc(CCO[C@H]2CCCCC2N2CC[C@H](OC(C)=O)C2)cc1OC.Cl` (stereo partly drawn) [Compound 13, (3S)-1-{(1R,2R)/(1S,2S)-2-[2-(3,4-dimethoxyphenyl)-ethoxy]cyclohexyl}-pyrrolidin-3-yl acetate hydrochloride] gave a cum conv dose of 51.9 µmol/kg. The compound also gave a convulsion dose (rat, in vivo, iv) of 8 µmol/kg/min.

In the case of `COc1ccc(CCOC2CCCC[C@H]2N2CCC(F)C2)cc1OC.Cl` (stereo partly drawn) [Compound 14, (3R)/(3S)-1-{(1R,2R)/(1S,2S)-2-[2-(3,4-dimethoxyphenyl)-ethoxy]cyclohexyl}-3-fluoropyrrolidine hydrochloride], the cum conv dose (rat, in vivo) turned out to be 63.33 µmol/kg. The convulsion dose (rat, in vivo, iv) stood at 10.67 µmol/kg/min.

Compound `COc1ccc(CCO[C@H]2CCCCC2N2CCC[C@@H]2CO)cc1OC.Cl` (stereo partly drawn) [Compound 15, {(2R)-1-{(1R,2R)/(1S,2S)-2-[2-(3,4-dimethoxyphenyl)-ethoxy]cyclohexyl}-pyrrolidin-2-yl}methanol hydrochloride] showed a cum conv dose (rat, in vivo) of 142.33 µmol/kg. For the setting “rat, in vivo, iv”, this compound had a convulsion dose of 16 µmol/kg/min.

On to `COc1ccc(CCOC2CCCC[C@H]2N2CC=CC2)cc1OC.Cl` (stereo partly drawn) [Compound 16, 1-{(1R,2R)/(1S,2S)-2-[2-(3,4-dimethoxyphenyl)-ethoxy]cyclohexyl}-2,5-dihydro-1H-pyrrole hydrochloride], for which, for the setting “rat, in vivo”, the cum conv dose was determined as 44.4 µmol/kg. Moreover, the convulsion dose (rat, in vivo, iv) was 8 µmol/kg/min.

Where the note is “rat, in vivo”, `COc1ccc(CCO[C@@H]2CCCC[C@H]2N2CC[C@@H](OC(C)=O)C2)cc1OC.Cl` [Compound 17, (3R)-1-{(1R,2R)-2-[2-(3,4-dimethoxyphenyl)-ethoxy]cyclohexyl}-pyrrolidin-3-yl acetate hydrochloride] yielded a cum conv dose of 74.3 µmol/kg. The convulsion dose (rat, in vivo, iv) was determined as 13.33 µmol/kg/min.

Under “rat, in vivo”, `COc1ccc(CCOC2CCCC[C@H]2N2CCC(=O)C2)cc1OC.Cl` (stereo partly drawn) [Compound 18, 1-{(1R,2R)/(1S,2S)-2-[2-(3,4-dimethoxyphenyl)-ethoxy]cyclohexyl}-pyrrolidin-3-one hydrochloride] gave a cum conv dose of 235 µmol/kg. The convulsion dose (rat, in vivo, iv) was found to be 32 µmol/kg/min.

In turn, `COc1ccc(CCCO[C@H]2CCCCC2N2CCOCC2)cc1OC.Cl` (stereo partly drawn) [Compound 19, 4-{(1R,2R)/(1S,2S)-2-[3-(3,4-dimethoxyphenyl)-propoxy]cyclohexyl}morpholine hydrochloride] came in with a cum conv dose (rat, in vivo) of 109 µmol/kg. The compound also registered a convulsion dose (rat, in vivo, iv) of 16 µmol/kg/min.

`COc1ccc(CCCCO[C@H]2CCCCC2N2CCOCC2)cc1OC.Cl` (stereo partly drawn) [Compound 20, 4-{(1R,2R)/(1S,2S)-2-[4-(3,4-dimethoxyphenyl)-butoxy]cyclohexyl}morpholine hydrochloride] came in with a cum conv dose (rat, in vivo) of 66.8 µmol/kg. Also, the convulsion dose (rat, in vivo, iv) was 10.7 µmol/kg/min.

`COc1cc(CCCO[C@H]2CCCCC2N2CC[C@@H](O)C2)cc(Cl)c1OC.Cl` (stereo partly drawn) [Compound 21, (3R)-1-{(1R,2R)/(1S,2S)-2-[3-(3-chloro-4,5-dimethoxyphenyl)-propoxy]cyclohexyl}pyrrolidin-3-ol hydrochloride] registered a cum conv dose (rat, in vivo) of 90.9 µmol/kg. The same compound displayed a convulsion dose (rat, in vivo, iv) of 13.33 µmol/kg/min.

Turning to `COc1ccc(CCOC2CCCC[C@H]2N2CCN(C(=O)Cc3ccc(OC)c(OC)c3)CC2)cc1OC.Cl` (stereo partly drawn) [Compound 22, 1-[(3,4-dimethoxyphenyl)acetyl]-4-{(1R,2R)/(1S,2S)-2-[2-(3,4-dimethoxyphenyl)-ethoxy]cyclohexyl}-piperazine hydrochloride], the convulsion dose under setting [1] worked out at 21.33 µmol/kg/min. The cum conv dose under setting [2] worked out at 133 µmol/kg.

As to `Cl.OC1CCN(C2CCCC[C@@H]2OCCc2c(Cl)cccc2Cl)C1` (stereo partly drawn) [Compound 23, (3R)/(3S)-1-{(1R,2R)/(1S,2S)-2-[2-(2,6-dichlorophenyl)-ethoxy]cyclohexyl}-pyrrolidin-3-ol hydrochloride], the cum conv dose (rat, in vivo) was 65 µmol/kg. This compound also gave a convulsion dose (rat, in vivo, iv) of 8 µmol/kg/min.

`Cl.OC1CCN(C2CCCC[C@@H]2OCCc2ccccc2Br)C1` (stereo partly drawn) [Compound 24, (3R)/(3S)-1-{(1R,2R)/(1S,2S)-2-[2-(2-bromophenyl)-ethoxy]cyclohexyl}-pyrrolidin-3-ol hydrochloride]: the cum conv dose (rat, in vivo) came to 67 µmol/kg. The convulsion dose (rat, in vivo, iv) came to 13 µmol/kg/min.

With `Cl.OC1CCN([C@@H]2CCCC[C@@H]2OCCc2cccc3ccccc23)C1` (stereo partly drawn) [Compound 25, (3R)/(3S)-1-{(1R,2S)/(1S,2R)-2-[2-(1-naphthyl)ethoxy]-cyclohexyl}-pyrrolidin-3-ol hydrochloride], the cum conv dose (rat, in vivo) turned out to be 70 µmol/kg. This compound showed a convulsion dose (rat, in vivo, iv) of 16 µmol/kg/min.

Under “rat, in vivo”, `Cl.OC1CCN(C2CCCC[C@@H]2OCCc2cccc3ccccc23)C1` (stereo partly drawn) [Compound 26, (3R)/(3S)-1-{(1R,2R)/(1S,2S)-2-[2-(1-naphthyl)ethoxy]-cyclohexyl}-pyrrolidin-3-ol hydrochloride] gave a cum conv dose of 67.33 µmol/kg. Besides, the convulsion dose (rat, in vivo, iv) is 8 µmol/kg/min.

As for `Cl.O[C@@H]1CCN(C2CCCC[C@@H]2OCCc2ccccc2C(F)(F)F)C1` (stereo partly drawn) [Compound 27, (3R)-1-{(1R,2R)/(1S,2S)-2-[2-(2-Trifluoromethyl-phenyl)ethoxy]-cyclohexyl}-pyrrolidin-3-ol hydrochloride], where the note is “rat, in vivo”, the cum conv dose was 101.93 µmol/kg. Where the note is “rat, in vivo, iv”, the convulsion dose came to 16 µmol/kg/min.

For the compound `Cl.OC1CCN(C2CCCC[C@@H]2OCCn2ccc3ccccc32)C1` (stereo partly drawn) [Compound 28, (3R)/(3S)-1-{(1R,2R)/(1S,2S)-2-[2-(1H-indol-1-yl)ethoxy]cyclohexyl}pyrrolidin-3-ol hydrochloride], the cum conv dose (rat, in vivo) was 113 µmol/kg. The convulsion dose (rat, in vivo, iv) was found to be 16 µmol/kg/min.

`Cl.O[C@@H]1CCN(C2CCCC[C@@H]2OCCc2cc3ccccc3o2)C1` (stereo partly drawn) [Compound 29, (3R)-1-{(1R,2R)/(1S,2S)-2-[2-(1-benzofuran-2-yl)ethoxy]-cyclohexyl}-pyrrolidin-3-ol hydrochloride] registered a cum conv dose (rat, in vivo) of 65.67 µmol/kg. For the setting “rat, in vivo, iv”, the convulsion dose was 10.67 µmol/kg/min.
